The record followed here is US20240398784A1, “C-LINKED ISOQUINOLINE AMIDES AS LRRK2 INHIBITORS, PHARMACEUTICAL COMPOSITIONS, AND USES THEREOF” (Merck Sharp & Dohme LLC, priority 2021, published 2024).

The target in the test is LRRK2 G2019S (Homo sapiens, UniProt Q5S007, G2019S). In words: LRRK2 G2019S Km ATP LanthaScreen assay. It counts as biochemical. The following applies: for IC50: read-out: LRRK2 pIC50 (converted). (TR-FRET usually uses a lanthanide donor and a delayed reading to cut background.)
Chain of LRRK2 G2019S (Q5S007 whole entry G2019S): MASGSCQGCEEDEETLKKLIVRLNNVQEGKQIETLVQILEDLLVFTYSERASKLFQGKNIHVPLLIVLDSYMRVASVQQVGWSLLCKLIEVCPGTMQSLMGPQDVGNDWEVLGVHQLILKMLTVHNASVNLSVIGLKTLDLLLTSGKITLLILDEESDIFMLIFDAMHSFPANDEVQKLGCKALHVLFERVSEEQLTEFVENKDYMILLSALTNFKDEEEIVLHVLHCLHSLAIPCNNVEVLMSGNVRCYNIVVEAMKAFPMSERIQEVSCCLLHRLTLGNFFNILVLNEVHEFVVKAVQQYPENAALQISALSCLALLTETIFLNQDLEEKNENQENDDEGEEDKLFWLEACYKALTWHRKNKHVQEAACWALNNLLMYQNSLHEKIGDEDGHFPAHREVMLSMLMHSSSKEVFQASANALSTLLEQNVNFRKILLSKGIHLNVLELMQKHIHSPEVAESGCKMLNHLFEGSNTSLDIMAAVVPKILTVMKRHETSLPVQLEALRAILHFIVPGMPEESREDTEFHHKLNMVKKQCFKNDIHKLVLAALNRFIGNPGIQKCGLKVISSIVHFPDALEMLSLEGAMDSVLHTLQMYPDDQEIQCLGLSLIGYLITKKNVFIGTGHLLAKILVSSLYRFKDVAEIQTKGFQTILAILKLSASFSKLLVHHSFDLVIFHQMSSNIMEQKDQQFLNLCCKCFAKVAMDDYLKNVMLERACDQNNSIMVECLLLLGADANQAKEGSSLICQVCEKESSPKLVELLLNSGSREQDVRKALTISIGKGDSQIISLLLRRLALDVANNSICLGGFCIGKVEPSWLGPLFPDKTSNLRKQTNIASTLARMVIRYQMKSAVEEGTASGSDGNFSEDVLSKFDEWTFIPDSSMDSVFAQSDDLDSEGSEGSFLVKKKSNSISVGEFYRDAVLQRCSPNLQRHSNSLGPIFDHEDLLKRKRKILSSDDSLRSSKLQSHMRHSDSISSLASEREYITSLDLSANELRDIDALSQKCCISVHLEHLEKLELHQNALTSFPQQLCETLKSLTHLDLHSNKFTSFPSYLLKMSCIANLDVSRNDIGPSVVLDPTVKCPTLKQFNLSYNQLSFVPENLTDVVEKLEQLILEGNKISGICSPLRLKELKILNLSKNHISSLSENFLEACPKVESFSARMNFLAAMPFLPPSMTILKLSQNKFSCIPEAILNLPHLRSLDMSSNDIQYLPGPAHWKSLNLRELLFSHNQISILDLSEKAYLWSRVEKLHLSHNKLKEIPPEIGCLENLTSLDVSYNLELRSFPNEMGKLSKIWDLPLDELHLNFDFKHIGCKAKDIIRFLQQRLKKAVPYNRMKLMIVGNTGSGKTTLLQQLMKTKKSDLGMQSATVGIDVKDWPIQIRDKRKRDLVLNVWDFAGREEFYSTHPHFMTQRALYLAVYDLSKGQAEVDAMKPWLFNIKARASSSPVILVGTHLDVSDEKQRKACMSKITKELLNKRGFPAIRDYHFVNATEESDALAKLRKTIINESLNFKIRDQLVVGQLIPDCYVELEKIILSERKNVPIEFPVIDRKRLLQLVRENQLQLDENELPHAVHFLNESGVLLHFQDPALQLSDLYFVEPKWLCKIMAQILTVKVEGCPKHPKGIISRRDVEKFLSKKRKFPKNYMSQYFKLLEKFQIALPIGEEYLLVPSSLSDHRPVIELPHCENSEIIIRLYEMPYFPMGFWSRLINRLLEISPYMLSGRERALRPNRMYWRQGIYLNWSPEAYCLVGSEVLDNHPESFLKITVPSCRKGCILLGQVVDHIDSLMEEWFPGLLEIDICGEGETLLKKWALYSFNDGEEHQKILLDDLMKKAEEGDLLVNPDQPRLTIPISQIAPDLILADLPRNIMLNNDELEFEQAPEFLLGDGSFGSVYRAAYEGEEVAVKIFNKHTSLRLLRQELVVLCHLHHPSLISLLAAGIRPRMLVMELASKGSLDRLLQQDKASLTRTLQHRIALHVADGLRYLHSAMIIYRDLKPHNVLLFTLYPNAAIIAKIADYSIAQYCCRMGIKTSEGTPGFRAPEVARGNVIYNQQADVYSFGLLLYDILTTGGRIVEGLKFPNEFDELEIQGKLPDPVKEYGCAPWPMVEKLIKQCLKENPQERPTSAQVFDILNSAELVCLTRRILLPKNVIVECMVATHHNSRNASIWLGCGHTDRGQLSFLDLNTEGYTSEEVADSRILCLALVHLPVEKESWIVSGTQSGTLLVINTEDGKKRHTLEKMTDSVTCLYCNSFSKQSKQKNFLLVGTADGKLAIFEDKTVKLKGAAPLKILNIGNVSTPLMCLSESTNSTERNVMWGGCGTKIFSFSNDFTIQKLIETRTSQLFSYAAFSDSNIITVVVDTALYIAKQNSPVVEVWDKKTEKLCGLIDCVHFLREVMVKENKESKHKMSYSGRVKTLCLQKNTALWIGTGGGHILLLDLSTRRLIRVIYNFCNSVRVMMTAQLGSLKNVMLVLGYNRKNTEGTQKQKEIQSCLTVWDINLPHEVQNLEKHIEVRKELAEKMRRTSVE

Consider `CC1(N2CCC(c3cc4cc(NC(=O)C5CCC5c5ccccn5)ncc4cc3Cl)CC2)COCC1O` (single isomer, unassigned) [Ex-4.73, N-(7-chloro-6-(1-(4-hydroxy-3-methyltetrahydrofuran-3-yl)piperidin-4-yl)isoquinolin-3-yl)-2-(pyridin-2-yl)cyclobutane-1-carboxamide], for which the IC50 was 661 nM.
For `O=C(Nc1cc2cc(C3CCN([C@@H]4COC[C@@H]4O)CC3)c(Cl)cc2cn1)C1CC12CCOC2` (single isomer, unassigned) [Ex-8.1, N-(7-chloro-6-(1-((3R,4R or 3S,4S)-4-hydroxytetrahydrofuran-3-yl)piperidin-4-yl)isoquinolin-3-yl)-5-oxaspiro[2.4]heptane-1-carboxamide], the “LRRK2 pIC50” value is on record as 10.0.
On to `Cn1cc(N2CCC(C(=O)Nc3cc4cc(C5(C#N)CC56CC6)ccc4cn3)C2)cn1` (stereo not drawn) [Ex-2.76], for which the IC50 was 26.3 nM.
With `CC1(N2CCC(c3cc4cc(NC(=O)C5CC56CCOC6)ncc4cc3Cl)CC2)COCC1F` (single isomer, unassigned) [Ex-6.8, (R or S)-N-(7-chloro-6-(1-((3R,4R or 3S,4S)-4-fluoro-3-methyltetrahydrofuran-3-yl)piperidin-4-yl)isoquinolin-3-yl)-5-oxaspiro [2.4] heptane-1-carboxamide], the IC50 is 34.7 nM.
Regarding `CC1(C)CC(C(=O)Nc2cc3cc(C4CCN(C5(C)COCC5O)CC4)c(Cl)cc3cn2)CCO1` (stereo not drawn) [Ex-2.35], the IC50 is 2.63 nM.
For the compound `CC1(N2CCC(c3cc4cc(NC(=O)C5CC5c5ccccn5)ncc4cc3Cl)CC2)CCOC1` (single isomer, unassigned) [Ex-6.33, N-(7-chloro-6-(1-(3-methyltetrahydrofuran-3-yl)piperidin-4-yl)isoquinolin-3-yl)-2-(pyridin-2-yl)cyclopropane-1-carboxamide], the IC50 is 87.1 nM.
Regarding `Cc1cc2cnc(NC(=O)C3CC34CCOCC4)cc2cc1C1CCN(C2(C)COCC2C)CC1` (single isomer, unassigned) [Ex-15.4, N-(6-(1-(3,4-dimethyltetrahydrofuran-3-yl)piperidin-4-yl)-7-methylisoquinolin-3-yl)-6-oxaspiro[2.5]octane-1-carboxamide], the IC50 is 0.0813 nM.
For `CC1COCC1(C)N1CCC(c2cc3cc(NC(=O)C4CC45CCOCC5)ncc3cc2Cl)CC1` (single isomer, unassigned) [Ex-6.10, N-(7-chloro-6-(1-(3,4-dimethyltetrahydrofuran-3-yl)piperidin-4-yl)isoquinolin-3-yl)-6-oxaspiro[2.5]octane-1-carboxamide], the IC50 is 110 nM.
Same read-out and setting: the figure for `CCC1C(C(=O)Nc2cc3cc(C4CCN(C5(C)COCC5O)CC4)c(Cl)cc3cn2)C1c1ccccn1` (single isomer, unassigned) [Ex-4.55, N-(7-chloro-6-(1-(4-hydroxy-3-methyltetrahydrofuran-3-yl)piperidin-4-yl)isoquinolin-3-yl)-2-ethyl-3-(pyridin-2-yl)cyclopropane-1-carboxamide] is 30.9 nM; for `CC1(N2CCC(c3cc4cc(NC(=O)C5CC56CCOCC6)ncc4cc3Cl)CC2)COC(C2CC2)C1` (single isomer, unassigned) [Ex-6.16, N-(7-chloro-6-(1-(5-cyclopropyl-3-methyltetrahydrofuran-3-yl)piperidin-4-yl)isoquinolin-3-yl)-6-oxaspiro[2.5]octane-1-carboxamide] it is 0.214 nM.
On to `CC1(N2CCC(c3cc4cc(NC(=O)C5CC56CCOCC6)ncc4cc3Cl)CC2)COCC1F` (single isomer, unassigned) [Ex-6.25, N-(7-chloro-6-(1-(4-fluoro-3-methyltetrahydrofuran-3-yl)piperidin-4-yl)isoquinolin-3-yl)-6-oxaspiro[2.5]octane-1-carboxamide], for which the IC50 is 1.66 nM.
On to `Cc1noc(C2CC2C(=O)Nc2cc3cc(C4CCN(C5(C)COCC5O)CC4)c(Cl)cc3cn2)n1` (single isomer, unassigned) [Ex-4.15, N-(7-chloro-6-(1-(4-hydroxy-3-methyltetrahydrofuran-3-yl)piperidin-4-yl)isoquinolin-3-yl)-2-(3-methyl-1,2,4-oxadiazol-5-yl)cyclopropane-1-carboxamide], for which the IC50 is 0.0813 nM.
Same read-out and setting: the value for `CC1(N2CCC(c3cc4cc(NC(=O)C5CC56CCC(F)(F)CC6)ncc4cc3Cl)CC2)COCC1O` (stereo not drawn) [Ex-2.16] was 0.407 nM; that for `Cn1ncc(C2CC2C(=O)Nc2cc3cc(C4(C#N)CC45CC5)ccc3cn2)c1Cl` (stereo not drawn) [Ex-2.79] was 34.7 nM; that for `CC1(N2CCC(c3cc4cc(NC(=O)C5CC5C(F)F)ncc4cc3Cl)CC2)COCC1O` (single isomer, unassigned) [Ex-10.9, N-(7-chloro-6-(1-(4-hydroxy-3-methyltetrahydrofuran-3-yl)piperidin-4-yl)isoquinolin-3-yl)-2-(difluoromethyl)cyclopropane-1-carboxamide] was 7.24 nM.
With `CC1(N2CCC(c3cc4cc(NC(=O)C5C6CCOCC65)ncc4cc3Cl)CC2)COCC1F` (single isomer, unassigned) [Ex-6.41, N-(7-chloro-6-(1-(4-fluoro-3-methyltetrahydrofuran-3-yl)piperidin-4-yl)isoquinolin-3-yl)-3-oxabicyclo[4.1.0]heptane-7-carboxamide], the IC50 was 0.0813 nM.
Consider `Cc1cc2cnc(NC(=O)C3CC3)cc2cc1C1CCN(C2(C)COC2)CC1` [Ex-15.1], for which the IC50 was 3.24 nM.
In the case of `CC(=O)Nc1cc2cc(C3CCN(C4COC4)CC3)c(Cl)cc2cn1` [Ex-7.1, N-(7-chloro-6-(1-(oxetan-3-yl)piperidin-4-yl)isoquinolin-3-yl)acetamide], the IC50 was 11.5 nM.
Same read-out and setting: the figure for `CC(C)(O)C1CC1C(=O)Nc1cc2cc(C3CCN(C4(C)COC4)CC3)c(Cl)cc2cn1` (single isomer, unassigned) [Ex-22.1, (1R,2R or 1S,2S)-N-(7-chloro-6-(1-(3-methyloxetan-3-yl)piperidin-4-yl)isoquinolin-3-yl)-2-(2-hydroxypropan-2-yl)cyclopropanecarboxamide] is 4.47 nM.
Consider `Cn1ccc(C2CC2C(=O)Nc2cc3cc(C4CCN(C5(C)COCC5F)CC4)c(Cl)cc3cn2)n1` (stereo not drawn) [Ex-2.84], for which the IC50 was 0.0813 nM.
As for `CC1(N2CCC(c3cc4cc(NC(=O)C56CC(C5)C6)ncc4cc3Cl)CC2)COC1` [Ex-7.7, N-(7-chloro-6-(1-(3-methyloxetan-3-yl)piperidin-4-yl)isoquinolin-3-yl)bicyclo[1.1.1]pentane-1-carboxamide], the IC50 is 9.12 nM.
As for `CC(C)(O)C1CC1C(=O)Nc1cc2cc(C3CCN(C4(C)COCC4O)CC3)c(Cl)cc2cn1` (single isomer, unassigned) [Ex-4.9, Trans-N-(7-chloro-6-(1-(4-hydroxy-3-methyltetrahydrofuran-3-yl)piperidin-4-yl)isoquinolin-3-yl)-2-(2-hydroxypropan-2-yl)cyclopropane-1-carboxamide], the IC50 was 0.151 nM.
Regarding `CC1(C(=O)Nc2cc3cc(C4CCN(C5COC5)CC4)c(Cl)cc3cn2)CC1` [Ex-7.3, N-(7-chloro-6-(1-(oxetan-3-yl)piperidin-4-yl)isoquinolin-3-yl)-1-methylcyclopropane-1-carboxamide], the IC50 was 16.6 nM.
Regarding `CC1(N2CCC(c3cc4cc(NC(=O)C5CCC(C(F)(F)F)OC5)ncc4cc3Cl)CC2)COCC1O` (stereo not drawn) [Ex-2.60], the IC50 was 47.9 nM.
Regarding `CC1(N2CCC(c3cc4cc(NC(=O)C5CC5c5cncnc5)ncc4cc3Cl)CC2)COCC1O` (single isomer, unassigned) [Ex-4.36, N-(7-chloro-6-(1-(4-hydroxy-3-methyltetrahydrofuran-3-yl)piperidin-4-yl)isoquinolin-3-yl)-2-(pyrimidin-5-yl)cyclopropane-1-carboxamide], the IC50 was 0.562 nM.
On the same count and under the same terms, the figure for `CC(CC#N)c1cc2cc(NC(=O)C3CC3c3ccccn3)ncc2cc1Cl` (single isomer, unassigned) [Ex-9.21, N-(7-chloro-6-(1-cyanopropan-2-yl)isoquinolin-3-yl)-2-(pyridin-2-yl)cyclopropane-1-carboxamide] is 26.3 nM; for `CC1(C)CCC(C(=O)Nc2cc3cc(C4CCC(N5CCC(F)C5)CC4)c(Cl)cc3cn2)CO1` (single isomer, unassigned) [Ex-5.19, N-(7-chloro-6-(4-(3-fluoropyrrolidin-1-yl)cyclohexyl)isoquinolin-3-yl)-6,6-dimethyltetrahydro-2H-pyran-3-carboxamide] it is 2.34 nM.
The same measure, in the same setting: the value for `CCC1C(C(=O)Nc2cc3cc(C(C)CC#N)c(Cl)cc3cn2)C1c1cnn(C)c1` (single isomer, unassigned) [Ex-9.15, N-(7-chloro-6-(1-cyanopropan-2-yl)isoquinolin-3-yl)-2-ethyl-3-(1-methyl-1H-pyrazol-4-yl)cyclopropane-1-carboxamide] was 0.427 nM.
For the compound `Cc1cc2cnc(NC(=O)C3CC3C(C)(C)F)cc2cc1C1CCN(C2(C)COCC2O)CC1` (single isomer, unassigned) [Ex-15.5, 2-(2-fluoropropan-2-yl)-N-(6-(1-(4-hydroxy-3-methyltetrahydrofuran-3-yl)piperidin-4-yl)-7-methylisoquinolin-3-yl)cyclopropane-1-carboxamide], the IC50 is 21.4 nM.
On the same count and under the same terms, the value for `N#CC1(c2ccc3cnc(NC(=O)C4CC45CCOC5)cc3c2)CC12CC2` (stereo not drawn) [Ex-2.64] was 10.5 nM.
For the compound `CC1(C)CC(C(=O)Nc2cc3cc(C4CCC(N5CCC(F)C5)CC4)c(Cl)cc3cn2)CCO1` (single isomer, unassigned) [Ex-5.9, N-(7-chloro-6-(4-(3-fluoropyrrolidin-1-yl)cyclohexyl)isoquinolin-3-yl)-2,2-dimethyltetrahydro-2H-pyran-4-carboxamid], the IC50 is 1.78 nM.
As to `Cc1ccc(C2CC2C(=O)Nc2cc3cc(C4CCN(C5(C)COCC5O)CC4)c(Cl)cc3cn2)s1` (single isomer, unassigned) [Ex-4.58, N-(7-chloro-6-(1-(4-hydroxy-3-methyltetrahydrofuran-3-yl)piperidin-4-yl)isoquinolin-3-yl)-2-(5-methylthiophen-2-yl)cyclopropane-1-carboxamide], the IC50 is 1.51 nM.
In the case of `Cc1cc2cnc(NC(=O)C3CC3C(F)F)cc2cc1C1CCN(C2(C)COCC2O)CC1` (stereo not drawn) [Ex-2.53], the IC50 was 0.813 nM.
